Literature values as cited in patent US20090297596A1, “Nanoparticulate and Controlled Release Compositions Comprising a Platelet Aggregation Inhibitor” (ELAN PHARMA INTERNATIONAL LIMITED, priority 2005, published 2009).
Where two headings read alike, the source gives them in different places.

O=C1CCc2cc(OCCCCc3nnnn3C3CCCCC3)ccc2N1 [Cilostazol, 6-[4-(1-cyclohexyl-1H-tetrazol-5-yl)butoxy]-3,4-dihydro-2(1H)-quinolinone]
Inhibition of phosphodiesterase III (phosphodiesterase III): inhibits
Solubility (absolute ether): practically insoluble
Solubility (benzyl alcohol): soluble
Solubility (chloroform): freely soluble
Solubility (dimethylformamide): soluble
Solubility (ethanol): slightly soluble
Solubility (methanol): slightly soluble
Solubility (mixture of chloroform and methanol (1:1)): soluble
Solubility (water): practically insoluble
